Experimental data from ChEMBL document CHEMBL1201862, “PubChem BioAssay data set” (2004).
The source made the active and inactive calls.

Columns and labels:
[1] = test system: Vero; test: cells; format: functional; details: Chlorocebus sabaeus
[2] = target: Cytochrome P450 2C9 (Homo sapiens, UniProt P11712)
[3] = target: Cytochrome P450 2D6 (Homo sapiens, UniProt P10635);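 also: CYP2D6 member of a cytochrome P450 panel assay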
[4] = target: T1, Leucine aminopeptidase (Plasmodium falciparum 3D7, UniProt Q8IL11); test: P. falciparum M17LAP inhibitors, primary screen, biochemical, fluorogenic H-Leu-NHMec substrate, 1536-well (AID 1619); format: functional
T1 sequence (Q8IL11 whole entry): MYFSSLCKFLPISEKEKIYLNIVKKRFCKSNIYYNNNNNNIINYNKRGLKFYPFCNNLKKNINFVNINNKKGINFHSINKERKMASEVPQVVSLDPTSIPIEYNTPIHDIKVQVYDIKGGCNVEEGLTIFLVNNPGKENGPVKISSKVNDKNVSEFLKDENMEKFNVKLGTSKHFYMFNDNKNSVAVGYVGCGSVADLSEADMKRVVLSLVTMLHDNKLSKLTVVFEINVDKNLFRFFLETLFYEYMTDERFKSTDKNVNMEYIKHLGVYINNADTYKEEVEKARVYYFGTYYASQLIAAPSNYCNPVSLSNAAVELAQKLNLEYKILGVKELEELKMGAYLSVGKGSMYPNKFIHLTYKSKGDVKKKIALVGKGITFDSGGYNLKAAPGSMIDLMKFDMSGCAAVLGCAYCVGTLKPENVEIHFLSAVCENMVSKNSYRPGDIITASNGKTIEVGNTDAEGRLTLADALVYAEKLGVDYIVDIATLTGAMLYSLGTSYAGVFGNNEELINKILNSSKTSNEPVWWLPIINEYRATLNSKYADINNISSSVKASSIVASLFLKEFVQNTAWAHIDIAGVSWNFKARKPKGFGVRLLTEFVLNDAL

[5] = target: Cytochrome P450 2C19 (Homo sapiens, UniProt P33261); test: Cytochrome panel assay with activity outcomes. Panel member name: p450-cyp2c19 Compounds with AC50 equal or less than 10 uM are considered active; format: functional; details: read-out: AC50
[6] = Trypanosoma cruzi growth suppression in host cells – NIH3T3 host cells, beta-gal luminescence, confirmation (AID 2044); format: functional, cell-based;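 also: intracellular parasites grown in NIH/3T3 mouse fibroblasts as host cells; luminescent beta-galactosidase reporter signal from transgenic T. cruzi replicating inside host cells; inhibitors lower the luminescence signal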
[7] = NIH3T3 cell viability loss – ATP luminescence, mouse fibroblasts, counter-screen, dose response (AID 2010); format: functional, cell-based;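 also: cells exposed to compound for about 90 hours before reading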
[8] = target: T2, Cytochrome P450 1A2 (Homo sapiens, UniProt P05177);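 also: PubChem cytochrome P450 panel assay, CYP1A2 panel member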
T2 sequence (P05177 whole entry): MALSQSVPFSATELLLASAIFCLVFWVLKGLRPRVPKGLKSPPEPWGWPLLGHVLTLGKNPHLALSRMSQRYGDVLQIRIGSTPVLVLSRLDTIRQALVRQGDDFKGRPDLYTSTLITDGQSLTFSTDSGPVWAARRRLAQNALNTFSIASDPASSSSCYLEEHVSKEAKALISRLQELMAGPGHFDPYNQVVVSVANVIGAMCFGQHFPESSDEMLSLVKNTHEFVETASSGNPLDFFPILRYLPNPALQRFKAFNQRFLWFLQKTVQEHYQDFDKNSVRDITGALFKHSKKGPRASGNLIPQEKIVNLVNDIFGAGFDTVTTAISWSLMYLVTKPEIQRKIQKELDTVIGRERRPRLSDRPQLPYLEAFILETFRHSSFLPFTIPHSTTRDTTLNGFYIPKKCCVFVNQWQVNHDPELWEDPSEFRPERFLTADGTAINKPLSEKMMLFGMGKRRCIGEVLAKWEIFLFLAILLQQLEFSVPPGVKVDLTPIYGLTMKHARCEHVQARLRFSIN

[9] = target: Cytochrome P450 3A4 (Homo sapiens, UniProt P08684);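 also: CYP3A4 tested as one member of a cytochrome P450 panel screen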
[10] = viability of uninfected HEp-2 cells – cell-based, HTS, cytotoxicity control for RSV inhibitor project, dose response (AID 2410); format: functional; details: human respiratory syncytial virus
[11] = target: T3, Heat shock factor protein 1 (Mus musculus, UniProt P38532); test: enhancement of HSF1-driven luciferase signal – cell-based, NIH3T3, luminescence, dose retest, confirmation (AID 435004); format: functional;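 also: stress induced by proteasome inhibitor MG132 added 30 min after compound; luciferase reporter driven by HSF1 response element in NIH3T3 cells; actives raise luminescence as potentiators of the MG132 stress response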
T3 sequence (P38532 whole entry): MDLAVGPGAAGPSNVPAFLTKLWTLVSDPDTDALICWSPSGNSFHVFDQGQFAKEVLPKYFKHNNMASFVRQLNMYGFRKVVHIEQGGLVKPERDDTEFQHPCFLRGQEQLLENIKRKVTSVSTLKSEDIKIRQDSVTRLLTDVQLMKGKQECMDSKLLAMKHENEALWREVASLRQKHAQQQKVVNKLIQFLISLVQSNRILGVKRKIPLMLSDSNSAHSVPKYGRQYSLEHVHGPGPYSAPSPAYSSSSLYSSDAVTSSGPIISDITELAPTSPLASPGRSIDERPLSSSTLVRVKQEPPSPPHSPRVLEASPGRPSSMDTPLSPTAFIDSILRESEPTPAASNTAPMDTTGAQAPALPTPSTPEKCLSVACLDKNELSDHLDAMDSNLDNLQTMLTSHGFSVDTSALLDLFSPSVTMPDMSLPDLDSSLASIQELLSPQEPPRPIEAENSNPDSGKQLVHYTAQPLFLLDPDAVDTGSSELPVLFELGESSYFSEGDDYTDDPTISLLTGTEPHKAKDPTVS

[12] = Luminescence Cell-Based Dose Retest to Confirm Inhibitors of Cancer Stem Cells. [Related pubchem assays (depositor defined):AID2717, AID2721]; format: functional, Homo sapiens; details: Homo sapiens
[13] = Luminescence Cell-Based Dose Confirmation HTS to Identify Activators of 5'UTR Stem-Loop Driven Alpha-Synuclein mRNA Translation in H4 Neuroglioblastoma Cells. [Related pubchem assays: 1829 (Project Summary), 1814 (Primary HTS)]; format: functional
[14] = test system: Streptococcus sp. 'group A'; test: Streptococcus pyogenes SK(-)GAS viability under kanamycin – luminescence, BacTiterGlo, confirmation, counter-screen for streptokinase expression inhibitor project, dose response (AID 1900); format: functional, organism-based
[15] = test system: H4; test: Luminescence Cell-Based Dose Response HTS to Identify Activators of 5'UTR Stem-Loop Driven Prion Protein mRNA Translation in H4 Neuroglioblastoma Cells. [Related pubchem assays: 1829 (Project Summary), 1814 (Primary HTS)]; format: functional; details: Homo sapiens
[16] = test system: Streptococcus; test: GAS UMAA2166 growth inhibition – luminescence, BacTiterGlo, counter-screen for streptokinase expression inhibitor project, dose response (AID 1915); format: functional, organism-based;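 also: potency for reduction of bacterial viability or growth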
[17] = Luminescence Cell-Based Dose Response HTS to Identify Activators of Luciferase Translation or Activity in H4 […] Cells. [Related pubchem assays: 1829 (Project Summary), 1814 (Primary HTS)]; format: functional
[18] = target: T4, Streptokinase A (Streptococcus pyogenes serotype M1, UniProt P10520); test: viability-normalized secreted streptokinase activity reduction – plasminogen activation absorbance, OD405, dose response (AID 1914); format: functional, Streptococcus pyogenes M1 GAS;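 also: secreted streptokinase activity via plasminogen activation per viability signal from cell pellet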
T4 sequence (P10520 whole entry): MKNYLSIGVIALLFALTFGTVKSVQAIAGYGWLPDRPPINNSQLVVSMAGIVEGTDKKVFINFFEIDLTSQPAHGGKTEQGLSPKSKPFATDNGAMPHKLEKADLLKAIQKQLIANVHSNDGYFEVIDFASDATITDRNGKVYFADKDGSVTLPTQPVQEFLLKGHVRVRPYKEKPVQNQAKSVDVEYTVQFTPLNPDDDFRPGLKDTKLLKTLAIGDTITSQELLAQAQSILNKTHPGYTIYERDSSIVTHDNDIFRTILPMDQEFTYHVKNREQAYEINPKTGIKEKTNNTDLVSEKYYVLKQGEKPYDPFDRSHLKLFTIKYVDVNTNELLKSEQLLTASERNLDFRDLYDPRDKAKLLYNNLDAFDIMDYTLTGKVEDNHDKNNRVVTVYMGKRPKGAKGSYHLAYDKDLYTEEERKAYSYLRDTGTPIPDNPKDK

Cytochrome P450 2D6, sequence (P10635 whole entry): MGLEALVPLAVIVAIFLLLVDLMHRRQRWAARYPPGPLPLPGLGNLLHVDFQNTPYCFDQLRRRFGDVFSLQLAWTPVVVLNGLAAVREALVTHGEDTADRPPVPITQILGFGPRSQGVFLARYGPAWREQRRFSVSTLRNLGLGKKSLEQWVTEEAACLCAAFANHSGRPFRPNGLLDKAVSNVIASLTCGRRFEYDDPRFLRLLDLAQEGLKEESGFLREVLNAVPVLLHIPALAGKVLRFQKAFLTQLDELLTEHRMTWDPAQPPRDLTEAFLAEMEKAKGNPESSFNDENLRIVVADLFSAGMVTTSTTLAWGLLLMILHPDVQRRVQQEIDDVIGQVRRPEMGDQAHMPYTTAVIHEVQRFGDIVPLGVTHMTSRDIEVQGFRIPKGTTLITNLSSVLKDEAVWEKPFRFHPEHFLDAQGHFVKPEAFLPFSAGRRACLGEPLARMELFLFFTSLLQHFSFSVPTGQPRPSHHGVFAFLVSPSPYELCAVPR
Cytochrome P450 2C9, sequence (P11712 whole entry): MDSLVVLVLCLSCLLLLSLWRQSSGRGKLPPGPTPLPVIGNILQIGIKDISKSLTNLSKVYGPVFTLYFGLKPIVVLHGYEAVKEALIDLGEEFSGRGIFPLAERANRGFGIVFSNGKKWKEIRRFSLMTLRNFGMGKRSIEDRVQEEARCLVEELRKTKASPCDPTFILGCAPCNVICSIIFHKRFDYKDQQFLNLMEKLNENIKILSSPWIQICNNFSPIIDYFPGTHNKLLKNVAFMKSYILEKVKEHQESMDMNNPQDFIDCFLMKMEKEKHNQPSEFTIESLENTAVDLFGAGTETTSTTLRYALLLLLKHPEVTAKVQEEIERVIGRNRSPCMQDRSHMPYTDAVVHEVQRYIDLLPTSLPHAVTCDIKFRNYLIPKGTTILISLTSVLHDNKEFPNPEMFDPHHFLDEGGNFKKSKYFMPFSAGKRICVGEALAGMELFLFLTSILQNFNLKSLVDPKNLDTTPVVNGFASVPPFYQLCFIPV
Cytochrome P450 3A4, sequence (P08684 whole entry): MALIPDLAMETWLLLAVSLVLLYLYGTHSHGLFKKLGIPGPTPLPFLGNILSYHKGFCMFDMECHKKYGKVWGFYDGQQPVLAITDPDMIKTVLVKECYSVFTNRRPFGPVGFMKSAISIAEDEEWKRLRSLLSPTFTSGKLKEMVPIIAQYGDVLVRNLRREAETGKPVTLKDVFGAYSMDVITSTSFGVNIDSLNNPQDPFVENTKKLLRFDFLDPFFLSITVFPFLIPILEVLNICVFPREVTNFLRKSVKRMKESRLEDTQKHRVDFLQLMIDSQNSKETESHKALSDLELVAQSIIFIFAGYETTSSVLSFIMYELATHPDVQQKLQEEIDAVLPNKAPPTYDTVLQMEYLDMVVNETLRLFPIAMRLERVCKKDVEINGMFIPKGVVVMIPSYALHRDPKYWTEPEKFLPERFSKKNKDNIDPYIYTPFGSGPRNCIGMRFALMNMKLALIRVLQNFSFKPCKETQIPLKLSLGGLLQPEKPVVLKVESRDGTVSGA
Cytochrome P450 2C19, sequence (P33261 whole entry): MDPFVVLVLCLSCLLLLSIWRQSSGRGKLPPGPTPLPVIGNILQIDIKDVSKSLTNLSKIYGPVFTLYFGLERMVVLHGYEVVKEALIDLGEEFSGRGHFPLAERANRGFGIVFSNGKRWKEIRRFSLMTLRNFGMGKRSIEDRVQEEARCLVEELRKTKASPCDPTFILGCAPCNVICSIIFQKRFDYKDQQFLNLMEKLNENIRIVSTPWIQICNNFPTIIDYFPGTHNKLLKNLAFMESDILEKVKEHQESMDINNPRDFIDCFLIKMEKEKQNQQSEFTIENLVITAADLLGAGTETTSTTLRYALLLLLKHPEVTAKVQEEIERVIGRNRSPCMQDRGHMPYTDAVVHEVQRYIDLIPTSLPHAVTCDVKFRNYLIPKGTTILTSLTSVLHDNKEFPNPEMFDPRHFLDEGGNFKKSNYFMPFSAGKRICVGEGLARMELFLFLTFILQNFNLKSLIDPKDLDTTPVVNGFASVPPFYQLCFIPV

C=C(C(=O)c1ccccc1)C(c1ccccc1)C(C)C(=O)c1ccccc1 (stereo unspecified)
CC50 [1]: 17.8 µM (active)

CCc1nc(SCC(=O)N2CCCc3ccccc32)c2oc3ccccc3c2n1
AC50 [2]: 4.47 µM (inconclusive) | AC50 [3]: 20 µM (inconclusive)

O=C(COc1ccccc1)NNC(=S)NC(=O)c1ccccc1
CC50 [1]: > 25 µM (active) | IC50 [4]: 9.22 µM (active)

Cc1ccc2[nH]c(C3CCCN(C(S)=Nc4ccccc4C)C3)nc2c1 (stereo unspecified)
AC50 [5]: 1.41 µM (inconclusive) | AC50 [2]: 3.16 µM (inconclusive) | EC50 [6]: 0.443 µM (active) | EC50 [7]: > 60 µM (not active)

CCOC(=O)c1cnc(-n2nc(C)cc2C)nc1NCCO
AC50 [8]: 14.1 µM (inconclusive) | AC50 [2]: 20 µM (inconclusive) | AC50 [9]: 25.1 µM (inconclusive)

Cc1cccc(C)c1NC(=O)CSc1nc(C)c(CC(=O)c2ccc(Br)cc2)c(C)c1C#N
AC50 [5]: 35.5 µM (inconclusive) | AC50 [2]: 1.12 µM (inconclusive)

COC(=O)c1[nH]c2cc(OC)ccc2c1NC(=O)c1nonc1C
AC50 [8]: 0.794 µM (inconclusive) | AC50 [2]: 1.26 µM (inconclusive) | AC50 [9]: 7.08 µM (inconclusive)

COc1ccc(C(=O)/C=C/c2ccc(OC)c(Cn3nnc4ccccc43)c2)cc1
CC50 [1]: 15.2 µM (active) | CC50 [10]: 12.1 µM (active) | EC50 [11]: 14.1 µM (active) | AC50 [12]: 6.14 µM (active)

COc1ccc(C(=O)N/N=C2/C(=O)c3c(C)cc(C)cc3CC2(C)C)cc1
AC50 [8]: 5.01 µM (inconclusive) | AC50 [2]: 6.31 µM (inconclusive)

O=C(O)/C=C\c1ccc(O)c(O)c1
AC50 [2]: 15.8 µM (inconclusive)

O=C(Nc1nnc(C2CCCCC2)s1)c1ccc(Br)s1
EC50 [13]: 11.6 µM (active) | EC50 [14]: 6.45 µM (active) | EC50 [15]: 81.8 µM (active) | EC50 [16]: > 150 µM (not active) | EC50 [17]: 65.3 µM (active) | EC50 [18]: > 150 µM (not active)

O=C(NCCN1CCN(Cc2ccccc2)CC1)C1CC(=O)N(C2CCCC2)C1 (stereo unspecified)
AC50 [2]: 0.398 µM (inconclusive) | AC50 [3]: 14.1 µM (inconclusive)

O=C(CCCn1c(=S)[nH]c2cc3c(cc2c1=O)OCO3)N1CCN(c2ccccc2)CC1
AC50 [8]: 4.47 µM (inconclusive) | AC50 [2]: 0.0891 µM (inconclusive) | AC50 [3]: 1.26 µM (inconclusive)

O=C1N(c2ccccc2C(F)(F)F)O[C@@]1(c1ccccc1)C1CCCC1
CC50 [1]: 21.6 µM (active)
